Two compounds from ChEMBL document CHEMBL5120978, “Application of Compositions Comprising a KRAS G12C Inhibitor and an EGFR Inhibitor for the Potential Treatment of Cancer” (2022) can be followed below.

Common to all, as to type: functional
Assay [1] relates to NCI-H2122. Put plainly: Anti-tumor activity against human NCI-H2122 cells xenografted with nude mouse assessed as inhibition of tumor growth inhibition at 50 mg/kg, po QD for 21 days relative to control. The conditions noted are these: NCI-H2122, 504 h, time 21 day, read-out: TGI. (In general: A xenograft is tissue or cells of one species grown in another, often human tumour cells in immunodeficient mice.)

In assay [2] the test system is NCI-H2122. Put plainly: Anti-tumor activity against human NCI-H2122 cells xenografted with nude mouse assessed as inhibition of tumor growth inhibition at 50 mg/kg, po QD for 21 days co-treated with 50 mg/kg, po QD Erlotinib relative to control. The settings on record: NCI-H2122, 504 h, time 21 day, read-out: TGI.
Assay [3] can be described thus: Anti-tumor activity against human PDX CR6256 cells xenografted with nude BALB/c mouse assessed as inhibition of tumor growth inhibition at 30 mg/kg, po QD for 21 days co-treated with 20 mg/kg, ip QD Cetuximab relative to control. The conditions noted are these: PDX CR6256, 504 h, time 21 day, read-out: TGI.

Consider `C=CC(=O)N1CCN(c2nc(OC[C@@H]3CCCN3C)nc3c(F)c(-c4nc(N)cc(C)c4C(F)(F)F)c(Cl)cc23)[C@@H](C)C1` [DIVARASIB], for which the results for the inhibition in vivo at 50 mg/kg in the assay with NCI-H2122 [1] and with NCI-H2122 [2] were 93% and 117%, respectively. The inhibition in vivo at 30 mg/kg in assay [3] worked out at 133%.

For `C#Cc1cccc(Nc2ncnc3cc(OCCOC)c(OCCOC)cc23)c1` [ERLOTINIB], in the assay with NCI-H2122 [1], the inhibition in vivo at 50 mg/kg came to 48%.
